From paper PMC11965660, “Isobavachalcone ameliorates Alzheimer disease pathology by autophagy-mediated clearance of amyloid beta and inhibition of NLRP3 inflammasome in primary astrocytes and 5x-FAD mice” (Frontiers in Pharmacology, 2025)
Entries after “also recorded” stand apart in the source; their conditions may differ.

Assays:
[1] = system: Aβ42; assay: Aβ estimation in plasma by ELISA; type: in vivo, 5x-FAD mice; conditions: 25 and 50 mg/kg, vs untreated 5x-FAD control
Source text: Hemizygous 5x-FAD transgenic mice (B6.Cg-Tg(APPSwFlLon, PSEN1*M146L*L286V) 6799Vas/Mmjax; MMRRC Strain: 034848-JAX) on congenic C57BL/6J genetic background were used for experiments. The 5x-FAD mice were genotyped using APP-specific qPCR probes to detect the transgene as per the protocol of Jackson Laboratory. Six months old 5x-FAD mice were randomly divided into three groups (n = 5), based on their body weights, with three males and two females in each group. We used mixed-cohort of males and females for our study to exclude any gender biased effect of IBC. Also, AD symptoms are more pronounced in females than in males ([Aggarwal and Mielke, 2023]), making it possible that males and females respond differently to the drug and treatment. Considering this, it is important to show effect of IBC on both sexes. At this age, Aβ deposition and neuroinflammation has already progressed in these mice. We have used IBC as a curative drug rather than a preventive drug. Prior to the initiation of the study, all the animals were acclimatized for 1 week under standard laboratory conditions; animals were drug naive with no prior procedures performed. All testing were performed from 1 to 4 p.m. […]
After the end of the experiment, blood was collected from the retinal orbital plexus of mice in EDTA-coated vials. […] The levels of Aβ in the plasma were measured by using the protein-specific ELISA kit.

[2] = system: 5x-FAD mice hippocampus; assay: Immunoblotting of autophagy, NLRP3 inflammasome and neuroinflammation proteins in hippocampus; type: in vivo; conditions: 25 and 50 mg/kg
Experimental: Cellular lysates were prepared using radio immuno precipitation assay (RIPA) buffer for protein analysis. Briefly, the cell pellet was dissolved in RIPA buffer containing sodium fluoride, sodium orthovanadate, phenyl methyl sulfonyl fluoride (PMSF) and 1% protease inhibitor cocktail for 1 h with vertexing sample every 15 min. The supernatant was collected after high-speed centrifugation of samples for 20 min at 4°C. For analysis of proteins in mice hippocampi, the hippocampi isolated from mice brains was immediately washed with saline and stored in liquid nitrogen. For lysates preparation, tissue was homogenized in RIPA buffer substituted with sodium fluoride, sodium orthovanadate, phenyl methyl sulfonyl fluoride and 1% protease inhibitor cocktail. Total protein was measured using Bradford assay. Proteins were separated using SDS-PAGE and then transferred from gel to PVDF membrane. The protein of interest was labeled with a specific primary antibody overnight at 4°C. Further, the blot was incubated with corresponding HRP-conjugated secondary antibody for 1 h at room temperature. The band were visualized in the Genaxy Chemi Doc imaging system (Make: Syngene, Maryland, USA; Model: G: BOX, XT-4). Densitometry analysis of all the immunoblots was performed by using ImageJ software. Band density of proteins was normalized with β-actin. The phosphorylated proteins were normalized with their total forms.
Hemizygous 5x-FAD transgenic mice (B6.Cg-Tg(APPSwFlLon, PSEN1*M146L*L286V) 6799Vas/Mmjax; MMRRC Strain: 034848-JAX) on congenic C57BL/6J genetic background were used for experiments. The 5x-FAD mice were genotyped using APP-specific qPCR probes to detect the transgene as per the protocol of Jackson Laboratory. Six months old 5x-FAD mice were randomly divided into three groups (n = 5), based on their body weights, with three males and two females in each group. We used mixed-cohort of males and females for our study to exclude any gender biased effect of IBC. Also, AD symptoms are more pronounced in females than in males ([Aggarwal and Mielke, 2023]), making it possible that males and females respond differently to the drug and treatment. Considering this, it is important to show effect of IBC on both sexes. At this age, Aβ deposition and neuroinflammation has already progressed in these mice. We have used IBC as a curative drug rather than a preventive drug. Prior to the initiation of the study, all the animals were acclimatized for 1 week under standard laboratory conditions; animals were drug naive with no prior procedures performed. All testing were performed from 1 to 4 p.m. IBC was orally (OD) given to two groups at different doses, 25 mg/kg (1% DMSO, 2% Tween 80, 19% PEG200, and 78% distilled water) and 50 mg/kg (1% DMSO, 5% Tween 80, 19% PEG200% and 75% distilled water) using oral gavage. 5x-FAD control mice were administered with vehicle (1% DMSO, 5% Tween 80, 19% PEG200% and 75% distilled water). For behavioral and Immunohistochemistry assays, experimenters were blinded to animal identity while carrying out the procedures.

[3] = system: IL-1β; assay: IL-1β in mice cortex by ELISA; type: in vivo, 5x-FAD mice; conditions: 25 and 50 mg/kg, vs 5x-FAD control
Source text: After the termination of experiments, the supernatant was collected and analyzed for levels of cytokines. For measuring IL-1β and IL-18, supernatant collected after NLRP3 inflammasome activation as mentioned above, was subjected to ELISA. For detection of IL-1β in mice cortex, mice cortices were isolated and homogenized in RIPA buffer to measure IL-1β in homogenates. The manufacturer’s protocol was followed for measuring the cytokines. The levels of measured cytokines were normalized with the total protein content of the cells. For total protein content of cell pellet lysed with lysis buffer (0.2 N NaCl and 1% Triton-X 100) was measured.
(§1) Hemizygous 5x-FAD transgenic mice (B6.Cg-Tg(APPSwFlLon, PSEN1*M146L*L286V) 6799Vas/Mmjax; MMRRC Strain: 034848-JAX) on congenic C57BL/6J genetic background were used for experiments. The 5x-FAD mice were genotyped using APP-specific qPCR probes to detect the transgene as per the protocol of Jackson Laboratory. Six months old 5x-FAD mice were randomly divided into three groups (n = 5), based on their body weights, with three males and two females in each group. We used mixed-cohort of males and females for our study to exclude any gender biased effect of IBC. Also, AD symptoms are more pronounced in females than in males ([Aggarwal and Mielke, 2023]), making it possible that males and females respond differently to the drug and treatment. […]

[4] = system: 5x-FAD mice; assay: Open field test; type: in vivo; conditions: 25 and 50 mg/kg oral, vs 5x-FAD control
Source text: as §1
To check the effect of IBC on the behavior of 5x-FAD mice, open field test (OFT), rotarod (Make; Ugo Basile, rota-rod for mice 7650) and radial arm maze (Make; Ugo Basile) tests were performed. […] After acclimatizing mice with rotarod for 5 days, their latency to fall was calculated on the day of analysis. […] Distance traveled, speed, time spent in corner and center zones and mobile episodes were recorded through an automated video tracking system using AnyMaze software. […] The movement of mice was tracked with the help of automated AnyMaze software connected with a tracking camera and various memory retention parameters were assessed.

[5] = system: primary astrocytes; assay: Cell viability assay (MTT and SRB); type: cell-based, C57BL/6J mice; conditions: 24 h, up to 100 μM
Experimental: For cell viability assay, primary astrocytes were seeded in 96 well plate and IBC treatment at different concentration was given for 24 h. For MTT assay, cells were treated with 1.25, 2.5, 5, 10, 20, 40, 80 and 100 μM of IBC, while for the SRB assay, 0.625, 1.25, 2.5, 5, […], 20, 40, 80 and 100 μM IBC treatment was given. MTT dye at a concentration of 2.5 mg/ml was added 4 h before experiment termination. Formazan crystals thus formed were dissolved in DMSO and absorbance was measured at 570 nm.
For the SRB assay, the experiment was terminated by adding 50% chilled TCA into the wells for 1 h. Pellets were washed five times with distilled water and kept drying. Cells were then incubated with SRB dye for 30 min at RT, followed by washing with 1% acetic acid thrice. After drying, pellets were dissolved in 10 mM Tris-HCl (pH-10.5) and absorbance was measured at 540 nm.

SMILES: CC(C)=CCc1c(O)ccc(C(=O)/C=C/c2ccc(O)cc2)c1O [IBC, isobavachalcone]
- Aβ42 in blood plasma [1]: reduced levels
- GFAP expression (western blot) [2]: decreased expression
- ASC level ([2]; western blot): significant abrogation
- ATG7 expression ([2]; western blot): increased expression
- CASP1 level ([2]; western blot): significant abrogation
- IBA1 expression ([2]; western blot): decreased expression
- SQSTM1 expression ([2]; western blot): significantly decreased
- cleavage of IL-1β ([2]; western blot): reduced cleavage
- pAMPK expression ([2]; western blot): increased expression
- IL-1β level in cortex [3]: highly significant decline
- exploratory behavior in open field [4]: improved exploratory behavior
- toxicity in primary astrocytes (MTT and SRB) [5]: no toxicity; also recorded: non-toxic
